Measured values published in patent publication US20240116946A1 (Gilead Sciences, Inc., priority 2022, published 2024).
Where two headings read alike, the source gives them in different places.

What was measured:
[1] = tested on: SARS-CoV-2-NLuc; test: microbe, parasite or virus in culture; assay type: cell-based, SARS Coronavirus 2
[2] = target: recombinant SARS-CoV-2 Main protease (Mpro) (Severe acute respiratory syndrome coronavirus 2 (2019-nCoV) (SARS-CoV-2), UniProt P0DTD1); test: Cov Mpro Biochemical IC50 Assay; conditions: fluorogenic peptide substrate 40 μM
[3] = Severe acute respiratory syndrome coronavirus, 48 h; read-out: MPro EC50
[4] = recombinant SARS-CoV-2 Mpro 7.5 nM, read-out: MPro IC50
[5] = Severe acute respiratory syndrome coronavirus, 48 h, read-out: MPro EC50

Structure (SMILES) | EC50 [1, 3] [µM] | IC50 [2, 4] [µM] | EC50 [1, 5] [µM] | IC50 ([2]; MPro IC50, recombinant SARS-CoV-2 Mpro 7.5 nM) [µM]
COc1cc(-c2cc3c(s2)c(=O)n(-c2cncc4ccccc24)c(=O)n3CC2(C#N)CC2)c(Cl)cc1F [Example 631, 1-[[6-(2-chloro-4-fluoro-5-methoxy-phenyl)-3-(4-isoquinolyl)-2,4-dioxo-thieno[3,2-d]pyrimidin-1-yl]methyl]cyclopropanecarbonitrile] | 0.00496 | 0.0126 | – | –
COc1cc(-c2cc3c(s2)c(=O)n(-c2cncc4ccccc24)c(=O)n3CCC#N)c(Cl)cc1F [Example 632, 3-(6-(2-chloro-4-fluoro-5-methoxyphenyl)-3-(isoquinolin-4-yl)-2,4-dioxo-3,4-dihydrothieno[3,2-d]pyrimidin-1(2H)-yl)propanenitrile] | 0.00311 | 0.00613 | – | –
COc1cc(-c2cc3c(s2)c(=O)n(-c2cncc4cnn(C)c24)c(=O)n3CC#N)c(Cl)cc1F [Example 641, 2-[6-(2-chloro-4-fluoro-5-methoxy-phenyl)-3-(1-methylpyrazolo[4,3-c]pyridin-7-yl)-2,4-dioxo-thieno[3,2-d]pyrimidin-1-yl]acetonitrile] | < 0.00442 | 0.0022 | – | –
COc1cc(-c2cc3c(s2)c(=O)n(-c2cncc4cnn(C)c24)c(=O)n3CCC#N)c(Cl)cc1F [Example 642, 3-[6-(2-chloro-4-fluoro-5-methoxy-phenyl)-3-(1-methylpyrazolo[4,3-c]pyridin-7-yl)-2,4-dioxo-thieno[3,2-d]pyrimidin-1-yl]propanenitrile] | 0.00459 | 0.00854 | – | –
COc1cc(-c2cc3c(s2)c(=O)n(-c2cncc4cnn(C)c24)c(=O)n3CC2(C#N)CC2)c(Cl)cc1F [Example 643, 1-[[6-(2-chloro-4-fluoro-5-methoxy-phenyl)-3-(1-methylpyrazolo[4,3-c]pyridin-7-yl)-2,4-dioxo-thieno[3,2-d]pyrimidin-1-yl]methyl]cyclopropanecarbonitrile] | 0.00114 | < 0.00405 | – | –
N#Cc1cc(-c2cc3[nH]c(=O)n(-c4cncc5ccccc45)c(=O)c3s2)c(Cl)cc1F [Example 646] | – | 1.9 | 11.8 | –
O=c1[nH]c2cc(-c3c(Cl)cc(Cl)c4c3CCO4)sc2c(=O)n1-c1cncc2ccccc12 [Example 647] | – | 0.0109 | 0.0259 | –
Cc1cc(C)c(-c2cc3[nH]c(=O)n(-c4cncc5ccccc45)c(=O)c3s2)cc1C#N [Example 648] | – | 0.0995 | 0.188 | –
COc1cc(-c2cc3[nH]c(=O)n(-c4cncc5cc(C(=O)N6CCOCC6)sc45)c(=O)c3s2)c(Cl)cc1F [Example 649] | – | 0.00791 | 0.195 | –
COc1cc(-c2cc3[nH]c(=O)n(-c4cncc5ccccc45)c(=O)c3cc2F)c(Cl)cc1F [Example 650, 7-(2-chloro-4-fluoro-5-methoxy-phenyl)-6-fluoro-3-(4-isoquinolyl)-1H-quinazoline-2,4-dione] | 0.0339 | – | – | 0.0317
COc1cc(F)cc(Cl)c1-c1ccc2c(=O)n(-c3cncc4ccccc34)c(=O)[nH]c2c1 [Example 651] | – | 0.336 | 0.135 | –
COc1cc(-c2cc3[nH]c(=O)n(-c4cncc5nc(C)sc45)c(=O)c3s2)c(Cl)cc1F [Example 652] | – | 0.0225 | 0.0481 | –
COc1cc(-c2cc3c(s2)c(=O)n(-c2cncc4ccsc24)c(=O)n3CC#N)c(Cl)cc1F [Example 653] | – | 0.00258 | 0.00445 | –
COc1cc(-c2cc3c(s2)c(=O)n(-c2cncc4ccsc24)c(=O)n3CCC#N)c(Cl)cc1F [Example 654] | – | 0.00387 | 0.00242 | –
COc1cc(-c2cc3c(s2)c(=O)n(-c2cncc4ccsc24)c(=O)n3CC2(C#N)CC2)c(Cl)cc1F [Example 655] | – | 0.0034 | 0.00331 | –
Cn1ncc2cncc(-n3c(=O)[nH]c4cc(-c5c(Cl)cc(Cl)c6c5CCO6)sc4c3=O)c21 [Example 656] | 0.0239 | 0.012 | – | –
COc1cc(-c2cc3[nH]c(=O)n(-c4cncc5cnn(C)c45)c(=O)c3s2)c(C)cc1F [Example 657] | – | 0.0144 | 0.0274 | –
COc1cc(-c2cc3c(s2)c(=O)n(-c2cncc4cnn(C)c24)c(=O)n3CCCC#N)c(Cl)cc1F [Example 658] | – | 0.0144 | 0.0228 | –

Structure (SMILES) | EC50 [1, 3] [µM] | IC50 [2, 4] [µM] | EC50 [1, 5] [µM] | IC50 ([2]; MPro IC50, recombinant SARS-CoV-2 Mpro 7.5 nM) [µM]
COc1cc(-c2cc3c(s2)c(=O)n(-c2cncc4ccccc24)c(=O)n3CCCC#N)c(Cl)cc1F [Example 660] | – | 0.0176 | 0.0167 | –
COc1cc(-c2cc3c(s2)c(=O)n(-c2cncc4ccccc24)c(=O)n3CC2(CC#N)CC2)c(Cl)cc1F [Example 661] | – | 0.0295 | 0.037 | –
Cn1ncc2cncc(-n3c(=O)[nH]c4cc(-c5ccc(F)cc5Cl)sc4c3=O)c21 [Example 662] | – | 0.0405 | 0.0817 | –
Cn1ncc2cncc(-n3c(=O)[nH]c4cc(-c5cc(F)ccc5Cl)sc4c3=O)c21 [Example 663] | – | 0.0144 | 0.0166 | –
Cn1ncc2cncc(-n3c(=O)c4sc(-c5cc(F)ccc5Cl)cc4n(CC#N)c3=O)c21 [Example 664] | – | 0.00524 | 0.0114 | –
COc1cc(-c2cc3c(s2)c(=O)n(-c2cncc4cnn(C)c24)c(=O)n3CCC#N)c(C)cc1F [Example 665] | – | 0.00727 | 0.0105 | –
COc1cc(-c2cc3[nH]c(=O)n(-c4cncc5cnn(C)c45)c(=O)c3s2)c(C)cc1Cl [Example 666] | 0.0556 | 0.024 | – | –
COc1cc(-c2cc3[nH]c(=O)n(-c4cncc5cnn(C)c45)c(=O)c3s2)c(Cl)cc1Cl [Example 667] | – | 0.014 | 0.0187 | –
COc1cnc(Cl)c(-c2cc3[nH]c(=O)n(-c4cncc5cnn(C)c45)c(=O)c3s2)c1 [Example 668] | – | 0.023 | 0.123 | –
Cc1cnc(Cl)c(-c2cc3[nH]c(=O)n(-c4cncc5cnn(C)c45)c(=O)c3s2)c1 [Example 669] | – | 0.336 | > 1 | –
Cn1ncc2c(-c3cc4[nH]c(=O)n(-c5cncc6cnn(C)c56)c(=O)c4s3)c(Cl)ccc21 [Example 670] | – | 0.146 | 0.585 | –
COc1cc(-c2cc3[nH]c(=O)n(-c4cncc5sc(C(C)(C)O)c(C)c45)c(=O)c3s2)c(Cl)cc1F [Example 671] | – | 0.00585 | 0.00744 | –
COc1cc(-c2cc3[nH]c(=O)n(-c4cncc5ccccc45)c(=O)c3cc2OC)c(Cl)cc1F [Example 672, 7-(2-chloro-4-fluoro-5-methoxyphenyl)-3-(isoquinolin-4-yl)-6-methoxyquinazoline-2,4(1H,3H)-dione] | – | 0.0378 | 0.0238 | –
N#Cc1cncc(-c2cccc(Cl)c2-c2cc3[nH]c(=O)n(-c4cncc5ccccc45)c(=O)c3s2)c1 [Example 673] | – | 0.00408 | 0.00371 | –
Cc1csc2cncc(-n3c(=O)[nH]c4cc(-c5c(Cl)cccc5-c5cncc(C#N)c5)sc4c3=O)c12 [Example 674] | – | 0.00385 | 0.00282 | –
CCOc1cc(-c2cc(OC)c(F)cc2Cl)cc2[nH]c(=O)n(-c3cncc4ccccc34)c(=O)c12 [Example 676] | – | 0.0316 | 0.0253 | –
Cn1ncc2cncc(-n3c(=O)[nH]c4cc(-c5c(Cl)cccc5-c5cncc(C#N)c5)sc4c3=O)c21 [Example 677] | 0.045 | 0.00727 | – | –
COc1cc(-c2cc(OC)c3c(=O)n(-c4cncc5ccccc45)c(=O)[nH]c3c2)c(C#N)cc1F [Example 679] | – | 0.0254 | 0.0801 | –
